Values joined by “and” are separate entries in the source; they are usually repeats but may differ in a detail not shown here. Identical values can stand only once. Inconclusive results are not listed.

Among the data in PubChem BioAssay AID212 (DTP/NCI, 2004) are T/C values, retold here.

In the test the test system is BDF1 mice, colon carcinoma 38 sc, T/C %. Description: NCI In Vivo Anticancer Drug Screen. Data for tumor model Colon Carcinoma 38 (subcutaneous) in B6D2F1 (BDF1) mice. Put shortly:
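Mice with transplanted tumors are treated with compound or vehicle. Survival or tumor size is then measured in both groups. The ratio of treated to control gives the reported figure.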

Where [1] appears, read: endpoint: median tumor weight (est.), dose: 0.5 mg/kg/injection, schedule: Q07DX002 (ip), vehicle: water, higher = larger tumour.

Turning to `COc1cccc2c1C(=O)c1c(O)c3c(c(O)c1C2=O)C[C@@](O)(C(=O)CO)C[C@@H]3OC1CC(N)C(O)C(C)O1` (stereo partly drawn), the T/C by setting is: (endpoint: median survival time, dose: 2.7 mg/kg/injection, schedule: Q07DX003 (iv), vehicle: saline, higher = longer survival) 104 % of control; (endpoint: median survival time, dose: 3.3 mg/kg/injection, schedule: Q07DX002 (iv), vehicle: saline, higher = longer survival) 112 % of control and 108 % of control; (endpoint: median survival time, dose: 3.3 mg/kg/injection, schedule: Q07DX004 (iv), vehicle: saline, higher = longer survival) 118 % of control; (endpoint: median survival time, dose: 4.1 mg/kg/injection, schedule: Q07DX003 (iv), vehicle: saline, higher = longer survival) 100 % of control; (endpoint: median survival time, dose: 4.5 mg/kg/injection, schedule: Q07DX002 (sc), vehicle: saline, higher = longer survival) 79 % of control; (endpoint: median survival time, dose: 5.2 mg/kg/injection, schedule: Q07DX002 (iv), vehicle: saline, higher = longer survival) 174 % of control. The T/C by setting is: (endpoint: median survival time, dose: 5.4 mg/kg/injection, schedule: Q07DX002 (iv), vehicle: saline, higher = longer survival) 109 % of control and 124 % of control; (endpoint: median survival time, dose: 5.4 mg/kg/injection, schedule: Q07DX004 (iv), vehicle: saline, higher = longer survival) 155 % of control; (endpoint: median survival time, dose: 6.0 mg/kg/injection, schedule: Q07DX003 (iv), vehicle: saline, higher = longer survival) 157 % of control; (endpoint: median survival time, dose: 7.3 mg/kg/injection, schedule: Q07DX002 (sc), vehicle: saline, higher = longer survival) 104 % of control; (endpoint: median survival time, dose: 8.5 mg/kg/injection, schedule: Q07DX002 (sc), vehicle: saline, higher = longer survival) 166 % of control; (endpoint: median survival time, dose: 8.7 mg/kg/injection, schedule: Q07DX002 (iv), vehicle: saline, higher = longer survival) 124 % of control. For the same compound, the T/C is 184 % of control (endpoint: median survival time, dose: 8.7 mg/kg/injection, schedule: Q07DX004 (iv), vehicle: saline, higher = longer survival); 168 % of control (endpoint: median survival time, dose: 9.0 mg/kg/injection, schedule: Q07DX003 (iv), vehicle: saline, higher = longer survival); 164 % of control (endpoint: median survival time, dose: 9.0 mg/kg/injection, schedule: Q07DX003 (sc), vehicle: saline, higher = longer survival); 113 % of control (endpoint: median survival time, dose: 12.0 mg/kg/injection, schedule: Q07DX002 (sc), vehicle: saline, higher = longer survival); 166 % of control (endpoint: median survival time, dose: 13.5 mg/kg/injection, schedule: Q07DX003 (sc), vehicle: saline, higher = longer survival); 152 % of control (endpoint: median survival time, dose: 15.5 mg/kg/injection, schedule: Q07DX003 (iv), vehicle: saline, higher = longer survival). The T/C reads like this: (endpoint: median tumor weight (est.), dose: 0.18 mg/kg/injection, schedule: Q07DX002 (ip), vehicle: water, higher = larger tumour) 67 % of control; (endpoint: median tumor weight (est.), dose: 0.37 mg/kg/injection, schedule: Q07DX002 (ip), vehicle: water, higher = larger tumour) 102 % of control; under setting [1], 108 % of control; (endpoint: median tumor weight (est.), dose: 0.5 mg/kg/injection, schedule: Q07DX003 (ip), vehicle: saline, higher = larger tumour) 101 % of control; (endpoint: median tumor weight (est.), dose: 1.0 mg/kg/injection, schedule: Q07DX003 (ip), vehicle: saline, higher = larger tumour) 101 % of control; (endpoint: median tumor weight (est.), dose: 1.25 mg/kg/injection, schedule: Q07DX002 (ip), vehicle: water, higher = larger tumour) 90 % of control. Also, the T/C by setting is: (endpoint: median tumor weight (est.), dose: 2.0 mg/kg/injection, schedule: Q07DX003 (ip), vehicle: saline, higher = larger tumour) 191 % of control; (endpoint: median tumor weight (est.), dose: 2.5 mg/kg/injection, schedule: Q07DX002 (ip), vehicle: saline, higher = larger tumour) 90 % of control; (endpoint: median tumor weight (est.), dose: 2.5 mg/kg/injection, schedule: Q07DX002 (ip), vehicle: water, higher = larger tumour) 50 % of control; (endpoint: median tumor weight (est.), dose: 3.0 mg/kg/injection, schedule: Q07DX002 (ip), vehicle: saline, higher = larger tumour) 106 % of control and 110 % of control; (endpoint: median tumor weight (est.), dose: 3.0 mg/kg/injection, schedule: Q07DX003 (iv), vehicle: saline, higher = larger tumour) 82 % of control and 83 % of control; (endpoint: median tumor weight (est.), dose: 4.0 mg/kg/injection, schedule: Q07DX003 (ip), vehicle: saline, higher = larger tumour) 85 % of control. Further, the T/C (endpoint: median tumor weight (est.), dose: 4.75 mg/kg/injection, schedule: Q07DX002 (ip), vehicle: water, higher = larger tumour) was 68 % of control; the T/C (endpoint: median tumor weight (est.), dose: 5.0 mg/kg/injection, schedule: Q07DX002 (ip), vehicle: saline, higher = larger tumour) is 70 % of control; the T/C (endpoint: median tumor weight (est.), dose: 5.0 mg/kg/injection, schedule: Q07DX002 (ip), vehicle: water, higher = larger tumour) was 25 % of control; the T/C (endpoint: median tumor weight (est.), dose: 6.33 mg/kg/injection, schedule: Q07DX002 (ip), vehicle: water, higher = larger tumour) was 14 % of control; the T/C (endpoint: median tumor weight (est.), dose: 8.0 mg/kg/injection, schedule: Q07DX003 (ip), vehicle: saline, higher = larger tumour) is 91 % of control; the T/C (endpoint: median tumor weight (est.), dose: 8.44 mg/kg/injection, schedule: Q07DX002 (ip), vehicle: water, higher = larger tumour) was 53 % of control. Also, the T/C reads like this: (endpoint: median tumor weight (est.), dose: 9.0 mg/kg/injection, schedule: Q07DX002 (ip), vehicle: water, higher = larger tumour) 56 % of control; (endpoint: median tumor weight (est.), dose: 11.25 mg/kg/injection, schedule: Q07DX002 (ip), vehicle: water, higher = larger tumour) 21 % of control; (endpoint: median tumor weight (est.), dose: 12.0 mg/kg/injection, schedule: Q07DX002 (ip), vehicle: saline, higher = larger tumour) 53 % of control; (endpoint: median tumor weight (est.), dose: 12.0 mg/kg/injection, schedule: Q07DX003 (iv), vehicle: saline, higher = larger tumour) 26 % of control; (endpoint: median tumor weight (est.), dose: 15.0 mg/kg/injection, schedule: Q07DX002 (ip), vehicle: water, higher = larger tumour) 6 % of control; (endpoint: median tumor weight (est.), dose: 16.0 mg/kg/injection, schedule: Q07DX003 (ip), vehicle: saline, higher = larger tumour) 103 % of control. Also, the T/C (endpoint: median tumor weight (est.), dose: 24.0 mg/kg/injection, schedule: Q07DX003 (iv), vehicle: saline, higher = larger tumour) is 12 % of control.

Regarding `C/C=C/C1=CC(=O)C(O)C1O` (stereo not drawn), the T/C is, setting by setting: (endpoint: median tumor weight (est.), dose: 90.0 mg/kg/injection, schedule: Q07DX002 (ip), vehicle: water, higher = larger tumour) 75 % of control; (endpoint: median tumor weight (est.), dose: 180.0 mg/kg/injection, schedule: Q07DX002 (ip), vehicle: water, higher = larger tumour) 170 % of control.

Take `CC(=O)OCC1OC(n2cc(CBr)nn2)C(OC(C)=O)C(OC(C)=O)C1OC(C)=O` (stereo not drawn): the T/C reads like this: (endpoint: median tumor weight (est.), dose: 6.25 mg/kg/injection, schedule: Q07DX003 (ip), vehicle: Klucel (hydroxypropylcellulose) (HPC), higher = larger tumour) 46 % of control; (endpoint: median tumor weight (est.), dose: 6.25 mg/kg/injection, schedule: Q07DX003 (ip), vehicle: saline with Tween-80, higher = larger tumour) 120 % of control; (endpoint: median tumor weight (est.), dose: 12.5 mg/kg/injection, schedule: Q07DX003 (ip), vehicle: Klucel (hydroxypropylcellulose) (HPC), higher = larger tumour) 93 % of control; (endpoint: median tumor weight (est.), dose: 12.5 mg/kg/injection, schedule: Q07DX003 (ip), vehicle: saline with Tween-80, higher = larger tumour) 67 % of control; (endpoint: median tumor weight (est.), dose: 25.0 mg/kg/injection, schedule: Q07DX003 (ip), vehicle: Klucel (hydroxypropylcellulose) (HPC), higher = larger tumour) 120 % of control; (endpoint: median tumor weight (est.), dose: 25.0 mg/kg/injection, schedule: Q07DX003 (ip), vehicle: saline with Tween-80, higher = larger tumour) 90 % of control. Further, the T/C is 53 % of control (endpoint: median tumor weight (est.), dose: 50.0 mg/kg/injection, schedule: Q07DX003 (ip), vehicle: saline with Tween-80, higher = larger tumour) and 64 % of control (endpoint: median tumor weight (est.), dose: 100.0 mg/kg/injection, schedule: Q07DX003 (ip), vehicle: saline with Tween-80, higher = larger tumour).

Take `CCCC(=O)O.CCCC(=O)O.CCCC(=O)O.CCCC(=O)O.[Rh].[Rh]`: the T/C (endpoint: median tumor weight (est.), dose: 0.25 mg/kg/injection, schedule: Q07DX002 (ip), vehicle: saline + alcohol, higher = larger tumour) was 87 % of control; the T/C (endpoint: median tumor weight (est.), dose: 0.5 mg/kg/injection, schedule: Q07DX002 (ip), vehicle: saline + alcohol, higher = larger tumour) is 76 % of control; the T/C (endpoint: median tumor weight (est.), dose: 1.0 mg/kg/injection, schedule: Q07DX002 (ip), vehicle: saline + alcohol, higher = larger tumour) is 91 % of control.

As for `O=C(Cc1cccc2c(=O)cc(-c3ccccc3)oc12)OCCN1CCOCC1`, the T/C was 115 % of control (endpoint: median tumor weight (est.), dose: 100.0 mg/kg/injection, schedule: Q07DX002 (ip), vehicle: Klucel (hydroxypropylcellulose) (HPC), higher = larger tumour) and 92 % of control (endpoint: median tumor weight (est.), dose: 200.0 mg/kg/injection, schedule: Q07DX002 (ip), vehicle: Klucel (hydroxypropylcellulose) (HPC), higher = larger tumour).

As to `CCC1(O)CC2CN(CCc3c([nH]c4ccccc34)C(C(=O)OC)(c3cc4c(cc3OC)N(C)C3C(O)(C(N)=O)C(O)C5(CC)C=CCN6CCC43C65)C2)C1` (stereo not drawn) (tested in a mixture with another compound), the T/C by setting is: (endpoint: median tumor weight (est.), dose: 0.12 mg/kg/injection, schedule: Q07DX002 (ip), vehicle: water, higher = larger tumour) 87 % of control; under setting [1], 119 % of control and 94 % of control; (endpoint: median tumor weight (est.), dose: 2.0 mg/kg/injection, schedule: Q07DX002 (ip), vehicle: water, higher = larger tumour) 36 % of control and 48 % of control; (endpoint: median tumor weight (est.), dose: 4.0 mg/kg/injection, schedule: Q07DX002 (ip), vehicle: water, higher = larger tumour) 5 % of control and 15 % of control.

On to `C=C(C)C1C2CC3(C)C4(CO4)C4OC4C3(O)C1C(=O)O2` (stereo not drawn), for which the T/C reads like this: (endpoint: median tumor weight (est.), dose: 0.38 mg/kg/injection, schedule: Q07DX002 (ip), vehicle: Klucel (hydroxypropylcellulose) (HPC), higher = larger tumour) 81 % of control; (endpoint: median tumor weight (est.), dose: 0.75 mg/kg/injection, schedule: Q07DX002 (ip), vehicle: Klucel (hydroxypropylcellulose) (HPC), higher = larger tumour) 104 % of control; (endpoint: median tumor weight (est.), dose: 1.5 mg/kg/injection, schedule: Q07DX002 (ip), vehicle: Klucel (hydroxypropylcellulose) (HPC), higher = larger tumour) 112 % of control.

Consider `C=CCOCC1CO1` (stereo not drawn), for which the T/C (endpoint: median tumor weight (est.), dose: 12.5 mg/kg/injection, schedule: Q07DX002 (ip), vehicle: saline, higher = larger tumour) was 66 % of control; the T/C (endpoint: median tumor weight (est.), dose: 100.0 mg/kg/injection, schedule: Q07DX002 (ip), vehicle: saline, higher = larger tumour) was 85 % of control; the T/C (endpoint: median tumor weight (est.), dose: 200.0 mg/kg/injection, schedule: Q07DX002 (ip), vehicle: saline, higher = larger tumour) is 122 % of control.
